In paper PMC7402526, “An in vitro quantitative systems pharmacology approach for deconvolving mechanisms of drug-induced, multilineage cytopenias” (PLoS Computational Biology, 2020):

What was measured:
Type in all cases: cell-based, human
[1] = test system: hematopoietic stem cells (HSCs); test: Multi-lineage toxicity assay (MLTA), HSCs: concentration-response and QSP model fit; parameters: EmaxAP,HSC / EmaxT,HSC / Emax_drug_HSC: unitless, 0–2; ≤1 anti-proliferative, >1 adds cell killing
Method: (§1) A custom optimized cytokine cocktail was developed using commercially available cytokines (Peprotech, New Jersey) to facilitate simultaneous multi-lineage differentiation and self-renewal of freeze-thawed primary human bone marrow-derived CD34+ cells in SFEM II media (cells and media from StemCell Technologies, Vancouver). Cultures were carried out in ultra-low attachment 96-well plates (Corning, New York) with test article added on day 0 and cultured at 37°C, 85% relative humidity, and 5% CO2 for six days before interrogating drug impact via 17-parameter flow cytometry.
(§2) The flow cytometry panel used to define hematopoietic subsets was composed of CD34-PECy7, CD90-PECY5, CD38-AF488, CD371-PE, CD45Ra-BV421, CD14-BV605, CD42b-AF647, CD10-PEDazzle594, CD235a-PerCPCy5.5 (BioLegend, California), CD15-BUV395, CD41a-APCH7, CD71-BV786 (BD Biosciences, California), and DAPI for dead cell exclusion (ThermoFisher, California). In short, Day 6 cells were harvested, FcR-blocked (FcR binding inhibitor, ThermoFisher), surface-stained, then analyzed in a buffer containing TruCount Control Beads using a BD LSR Fortessa SORP fitted with a high-throughput sampler (BD Biosciences, California). Data was analyzed in Diva 6.0.2 and exported to CSV where after all cell data was transformed to cell per mL then normalized on a per-donor basis to untreated control wells to determine drug impact.
(§3) Donor material was collected and cultured as described above. The number of replicate donor samples per drug ranged from 2–7 and varied per drug (S1 Table). Drug treatment was added at time 0 and cells were maintained in culture for 6 days. Concentrations tested for each drug compound are contained in S1 Table. Concentrations were selected to span a range that is clinically useful. Following treatment, cell populations were measured using flow cytometry. We extracted cell counts from flow cytometry data, normalized to bead counts, and corrected for well volume.
(§4) Each well was normalized to the average of six vehicle control wells. For drugs that were tested across multiple runs of the assay, vehicle-normalized donor data were pooled, and we used the average of these pooled data for further modeling. Normalized data used as model inputs are included in S1 Table.
(§5) We implemented drug effects using an Emax model for the drug’s effect on each cell type. The 13 maximum effect parameters (EmaxT,C) are unitless and can vary between 0 and 2 and where a subscript, C, represents one of the previously described 13 cell types. We adapted a traditional Emax model using the equations below. We interpreted EmaxT values less than or equal to one as anti-proliferative, and EmaxT values greater than one as indicating a cell-killing mechanism in addition to anti-proliferation. The relationships for these effects are included in the model using the following equations. Eq 2 describes the drug anti-proliferative effect in the net proliferation rate for a given cell type. Eq 3 describes the cell-killing EmaxCK effect.
(§6) Towards the estimation of mechanistic parameters, we considered different formulations: (a) weighting the objective value to prioritize fitting dead cells and (b) using regularization methodology to encourage a parsimonious solution. We assessed the contributions of these formulations using mean-squared error and goodness of fit plots for drugs with known mechanisms. […] Further, we used L1 regularization to penalize parameters […] to help identify a parsimonious set of parameters to explain drug effects.

[2] = test system: granulocyte progenitor (Gran-lin prog); test: MLTA, GranP: concentration-response and QSP model fit; details: Homo sapiens, 144 h
Method: as §1, §2, §3, §4, §5, §6

[3] = test system: monocyte progenitors (monocyte prog); test: MLTA, MonoP: concentration-response and QSP model fit; details: Homo sapiens, Monocyte, 144 h
Method: as §1, §2, §3, §4, §5, §6

monocytes (monocyte-lin) = test: MLTA, Mono: concentration-response and QSP model fit; details: Homo sapiens, Monocyte, 144 h
Method: as §1, §2, §3, §4, §5, §6

[4] = test system: neutrophils (neutrophil-lin); test: MLTA, Neut: concentration-response and QSP model fit; details: Homo sapiens, Neutrophil, 144 h
Method: as §1, §2, §3, §4, §5, §6

[5] = test system: early erythroid cells (Eryth I); test: MLTA, ErythI: concentration-response and QSP model fit; details: Homo sapiens, 144 h
Method: as §1, §2, §3, §4, §5, §6

B cells (B-lin) = test: MLTA, B-lin: concentration-response and QSP model fit; details: Homo sapiens, B-cell, 144 h
Method: as §1, §2, §3, §4, §5, §6

[6] = QSP model fit of 6-day MLTA data

CCN1CCN(Cc2ccc(Nc3ncc(F)c(-c4cc(F)c5nc(C)n(C(C)C)c5c4)n3)nc2)CC1 [abemaciclib]
EC50 ([1]; Homo sapiens, Hematopoietic stem cell, 144 h, QSP model fit of 6-day MLTA data): 111 nM
activity at 0.0002 µM ([1]; Homo sapiens, Hematopoietic stem cell, 144 h, dose 0.2 nM, 6 days, normalized to vehicle control, read-out: HSCs normalized cell count): 89.3%
activity at 0.001 µM ([1]; Homo sapiens, Hematopoietic stem cell, 144 h, dose 1 nM, 6 days, normalized to vehicle control, read-out: HSCs normalized cell count): 103%
activity at 0.005 µM ([1]; Homo sapiens, Hematopoietic stem cell, 144 h, dose 5 nM, 6 days, normalized to vehicle control, read-out: HSCs normalized cell count): 98.4%
activity at 0.025 µM ([1]; Homo sapiens, Hematopoietic stem cell, 144 h, dose 25 nM, 6 days, normalized to vehicle control, read-out: HSCs normalized cell count): 66.7%
activity at 0.1 µM ([1]; Homo sapiens, Hematopoietic stem cell, 144 h, dose 100 nM, 6 days, normalized to vehicle control, read-out: HSCs normalized cell count): 25.9%
activity at 0.5 µM ([1]; Homo sapiens, Hematopoietic stem cell, 144 h, dose 500 nM, 6 days, normalized to vehicle control, read-out: HSCs normalized cell count): 5.33%
activity at 2.5 µM ([1]; Homo sapiens, Hematopoietic stem cell, 144 h, dose 2500 nM, 6 days, normalized to vehicle control, read-out: HSCs normalized cell count): 2.74%
Emax ([1]; Homo sapiens, Hematopoietic stem cell, 144 h, parameter from QSP model fitting, read-out: Emax_drug_HSC): 91%
EmaxAP,HSC ([1]; anti-proliferation component, min(1, EmaxT)): 0.910
activity at 0.0002 µM ([2]; dose 0.2 nM, 6 days, normalized to vehicle control, read-out: GranPs normalized cell count): 95.1%
activity at 0.001 µM ([2]; dose 1 nM, 6 days, normalized to vehicle control, read-out: GranPs normalized cell count): 100%
activity at 0.005 µM ([2]; dose 5 nM, 6 days, normalized to vehicle control, read-out: GranPs normalized cell count): 86.6%
activity at 0.025 µM ([2]; dose 25 nM, 6 days, normalized to vehicle control, read-out: GranPs normalized cell count): 52%
activity at 0.1 µM ([2]; dose 100 nM, 6 days, normalized to vehicle control, read-out: GranPs normalized cell count): 24.8%
activity at 0.5 µM ([2]; dose 500 nM, 6 days, normalized to vehicle control, read-out: GranPs normalized cell count): 2.43%
activity at 2.5 µM ([2]; dose 2500 nM, 6 days, normalized to vehicle control, read-out: GranPs normalized cell count): 0.0287%
Emax ([2]; parameter from QSP model fitting, read-out: Emax_drug_GranP): 0.23%
activity at 0.0002 µM ([3]; dose 0.2 nM, 6 days, normalized to vehicle control, read-out: MonoPs normalized cell count): 98.7%
activity at 0.001 µM ([3]; dose 1 nM, 6 days, normalized to vehicle control, read-out: MonoPs normalized cell count): 99.4%
activity at 0.005 µM ([3]; dose 5 nM, 6 days, normalized to vehicle control, read-out: MonoPs normalized cell count): 80.6%
activity at 0.025 µM ([3]; dose 25 nM, 6 days, normalized to vehicle control, read-out: MonoPs normalized cell count): 27.5%
activity at 0.1 µM ([3]; dose 100 nM, 6 days, normalized to vehicle control, read-out: MonoPs normalized cell count): 8.19%
activity at 0.5 µM ([3]; dose 500 nM, 6 days, normalized to vehicle control, read-out: MonoPs normalized cell count): 1.58%
activity at 2.5 µM ([3]; dose 2500 nM, 6 days, normalized to vehicle control, read-out: MonoPs normalized cell count): 0.0911%
Emax ([3]; parameter from QSP model fitting, read-out: Emax_drug_MonoP): 0.17%
EC50 (monocytes (monocyte-lin); [6]): 46.2 nM
activity at 0.0002 µM (monocytes (monocyte-lin); dose 0.2 nM, 6 days, normalized to vehicle control, read-out: Mon normalized cell count): 92.9%
activity at 0.001 µM (monocytes (monocyte-lin); dose 1 nM, 6 days, normalized to vehicle control, read-out: Mon normalized cell count): 109%
activity at 0.005 µM (monocytes (monocyte-lin); dose 5 nM, 6 days, normalized to vehicle control, read-out: Mon normalized cell count): 87%
activity at 0.025 µM (monocytes (monocyte-lin); dose 25 nM, 6 days, normalized to vehicle control, read-out: Mon normalized cell count): 41.8%
activity at 0.1 µM (monocytes (monocyte-lin); dose 100 nM, 6 days, normalized to vehicle control, read-out: Mon normalized cell count): 10.9%
activity at 0.5 µM (monocytes (monocyte-lin); dose 500 nM, 6 days, normalized to vehicle control, read-out: Mon normalized cell count): 3.74%
activity at 2.5 µM (monocytes (monocyte-lin); dose 2500 nM, 6 days, normalized to vehicle control, read-out: Mon normalized cell count): 0.588%
Emax (monocytes (monocyte-lin); parameter from QSP model fitting, read-out: Emax_drug_Mono): 23.1%
EC50 [4, 6]: 66.2 nM
activity at 0.0002 µM ([4]; dose 0.2 nM, 6 days, normalized to vehicle control, read-out: Neut normalized cell count): 99.5%
activity at 0.001 µM ([4]; dose 1 nM, 6 days, normalized to vehicle control, read-out: Neut normalized cell count): 100%
activity at 0.005 µM ([4]; dose 5 nM, 6 days, normalized to vehicle control, read-out: Neut normalized cell count): 86.7%
activity at 0.025 µM ([4]; dose 25 nM, 6 days, normalized to vehicle control, read-out: Neut normalized cell count): 30.8%
activity at 0.1 µM ([4]; dose 100 nM, 6 days, normalized to vehicle control, read-out: Neut normalized cell count): 4.02%
activity at 0.5 µM ([4]; dose 500 nM, 6 days, normalized to vehicle control, read-out: Neut normalized cell count): 0.252%
activity at 2.5 µM ([4]; dose 2500 nM, 6 days, normalized to vehicle control, read-out: Neut normalized cell count): 0.0296%
Emax ([4]; parameter from QSP model fitting, read-out: Emax_drug_Neut): 23.5%
EC50 ([5]; QSP model fit of 6-day MLTA data, read-out: EC50ErythI): 29.2 nM
activity at 0.0002 µM ([5]; dose 0.2 nM, 6 days, normalized to vehicle control, read-out: ErythI normalized cell count): 107%
activity at 0.001 µM ([5]; dose 1 nM, 6 days, normalized to vehicle control, read-out: ErythI normalized cell count): 116%
activity at 0.005 µM ([5]; dose 5 nM, 6 days, normalized to vehicle control, read-out: ErythI normalized cell count): 97.8%
activity at 0.025 µM ([5]; dose 25 nM, 6 days, normalized to vehicle control, read-out: ErythI normalized cell count): 47.1%
activity at 0.1 µM ([5]; dose 100 nM, 6 days, normalized to vehicle control, read-out: ErythI normalized cell count): 20.1%
activity at 0.5 µM ([5]; dose 500 nM, 6 days, normalized to vehicle control, read-out: ErythI normalized cell count): 4.76%
activity at 2.5 µM ([5]; dose 2500 nM, 6 days, normalized to vehicle control, read-out: ErythI normalized cell count): 0.613%
Emax ([5]; parameter from QSP model fitting, read-out: Emax_drug_ErythroidI): 102%
EC50 (B cells (B-lin); [6]): 69.2 nM
activity at 0.0002 µM (B cells (B-lin); dose 0.2 nM, 6 days, normalized to vehicle control, read-out: B-lin normalized cell count): 83.9%
activity at 0.001 µM (B cells (B-lin); dose 1 nM, 6 days, normalized to vehicle control, read-out: B-lin normalized cell count): 104%
activity at 0.005 µM (B cells (B-lin); dose 5 nM, 6 days, normalized to vehicle control, read-out: B-lin normalized cell count): 83.9%
activity at 0.025 µM (B cells (B-lin); dose 25 nM, 6 days, normalized to vehicle control, read-out: B-lin normalized cell count): 50.8%
activity at 0.1 µM (B cells (B-lin); dose 100 nM, 6 days, normalized to vehicle control, read-out: B-lin normalized cell count): 23.5%
activity at 0.5 µM (B cells (B-lin); dose 500 nM, 6 days, normalized to vehicle control, read-out: B-lin normalized cell count): 4.07%
activity at 2.5 µM (B cells (B-lin); dose 2500 nM, 6 days, normalized to vehicle control, read-out: B-lin normalized cell count): 0.0736%
Emax (B cells (B-lin); parameter from QSP model fitting, read-out: Emax_drug_B): 64.9%
